Test results: patent publication US8183235B2, “Dihydronaphthalene compound and use thereof” (Tokyo University of Science Educational Foundation …, priority 2007, dated 2012)
Where a name gives a salt, the structure may show the parent alone.

Key:
[1] = tested on: KM-12; assay: Proliferation inhibition of colon cancer cells; format: cell-based; details: Homo sapiens, KM12
Description: (§1) As a comparison for the inhibition activity, tamoxifen citrate (TAM) was used. In the Table, the concentration units are μM.
(§2) In the same way as in Example 9, the proliferation inhibition activity of naforidaifens A to G was measured with respect to five types of colon cancer cells (HCC2998, KM-12, HT-29, HCT-15, and HCT-116). In the Table, the concentration units are μM.

[2] = tested on: HCT-116; assay: Proliferation inhibition of colon cancer cells; format: cell-based; details: Homo sapiens
Description: as §1, §2

[3] = tested on: HCC2998; assay: Proliferation inhibition of colon cancer cells; format: cell-based; details: Homo sapiens, HCC 2998
Description: as §1, §2

[4] = tested on: HT-29; assay: Proliferation inhibition of colon cancer cells; format: cell-based; details: Homo sapiens
Description: as §1, §2

[5] = tested on: HCT-15; assay: Proliferation inhibition of colon cancer cells; format: cell-based; details: Homo sapiens
Description: as §1, §2

[6] = target: 20S proteasome (Homo sapiens, UniProt P28072+P28074+Q99436); assay: Proteasome inhibition activity, overall judgement; format: biochemical; details: for Proteasome selectivity: judgement; for The evaluations (proteasome inhibition activity): overall judgement positive/negative
[7] = target: 20S proteasome caspase-like activity (Homo sapiens, UniProt P28072); assay: Caspase-like activity inhibition test; format: biochemical; details: for remaining activity at 10 µM: read-out: % Control, Caspase-like Activity
[8] = tested on: OVCAR-5; assay: Proliferation inhibition of ovarian cancer cells; format: cell-based; details: Homo sapiens
Description: as §1
(§3) In the same way as in Example 9, the proliferation inhibition activity of naforidaifens A to G was measured with respect to five types of ovarian cancer cells (OVCAR-3, OVCAR-4, OVCAR-5, OVCAR-8, AND SK-OV-3). In the Table, the concentration units are μM.

[9] = tested on: OVCAR-3; assay: Proliferation inhibition of ovarian cancer cells; format: cell-based; details: Homo sapiens
Description: as §1, §3

[10] = tested on: SK-OV-3; assay: Proliferation inhibition of ovarian cancer cells; format: cell-based; details: Homo sapiens
Description: as §1, §3

[11] = tested on: OVCAR-8; assay: Proliferation inhibition of ovarian cancer cells; format: cell-based; details: Homo sapiens
Description: as §1, §3

[12] = tested on: OVCAR-4; assay: Proliferation inhibition of ovarian cancer cells; format: cell-based; details: Homo sapiens
Description: as §1, §3

[13] = target: 20S proteasome chymotrypsin-like activity (Homo sapiens, UniProt P28074); assay: Chymotrypsin-like activity inhibition test; format: biochemical; details: for remaining activity at 10 µM: read-out: % Control, Chymotrypsin-like Activity
[14] = tested on: SNB-78; assay: Inhibition of propagation of central nervous system cancer cells (sulforhodamin B); format: cell-based; details: Homo sapiens, 48 h; SNB-78, two days of cultivation
Text: as §1

[15] = tested on: SF-268; assay: as above; format: cell-based; details: Homo sapiens, 48 h; SF-268, two days of cultivation
Text: as §1

[16] = tested on: U251; assay: as above; format: cell-based; details: Homo sapiens, U-251, 48 h; U251, two days of cultivation
Text: as §1

[17] = tested on: SNB-75; assay: as above; format: cell-based; details: Homo sapiens, 48 h; SNB-75, two days of cultivation
Text: as §1

[18] = tested on: SF-539; assay: as above; format: cell-based; details: Homo sapiens, 48 h; SF-539, two days of cultivation
Text: as §1

[19] = tested on: SF-295; assay: as above; format: cell-based; details: Homo sapiens, 48 h; SF-295, two days of cultivation
Text: as §1

[20] = tested on: Cathepsin B; assay: Cathepsin-like activity inhibition test; format: biochemical
Description: Cathepsin-Like Activity Inhibition Test
(§4) 1) To 20S proteasome, naforidaifen B adjusted to a concentration of 10 μM was added, and incubated at 30° C. for 10 min.
2) To the above test system, fluorescence labeled cathepsin including a 20S proteasome segmenting sequence was added, and reacted for 1 hr at 30° C.
(§5) 3) The fluorescent substance (AMC) released by the above reaction was excited with 360 nm light and assayed with 460 nm light.
(§6) 4) A test system to which naforidaifen B was not added was measured in the same way as (1) to (3) above, and the enzyme activity for the case of using naforidaifen B was measured.
(§7) 5) Stepwise diluted solutions containing naforidaifen B were prepared, and after carrying out the same evaluations as in (1) to (4), the 50% inhibition concentration (IC50) was determined.
6) As a positive control of the enzyme activity, the known proteasome inhibitor Clasto-Lactacystin β-Lactone (Lactacystin activator) and MGI32 were evaluated with the steps (1) to (5).

[21] = target: 20S proteasome trypsin-like activity (Homo sapiens, UniProt Q99436); assay: Trypsin-like activity inhibition test; format: biochemical; details: for remaining activity at 10 µM: read-out: % Control, Trypsin-like Activity
[22] = tested on: MKN7; assay: Proliferation inhibition of stomach cancer cells; format: cell-based; details: Homo sapiens, MKN-7
Description: as §1
(§8) In the same way as in Example 9, the proliferation inhibition activity of naforidaifens A to G was measured with respect to six types of stomach cancer cells (St-4, MKN1, MKN7, MKN28, MKN45, MKN74). In the Table, the concentration units are μM.

[23] = tested on: St-4; assay: Proliferation inhibition of stomach cancer cells; format: cell-based; details: Homo sapiens
Description: as §1, §8

[24] = tested on: MKN74; assay: Proliferation inhibition of stomach cancer cells; format: cell-based; details: Homo sapiens, MKN-74
Description: as §1, §8

[25] = tested on: MKN28; assay: Proliferation inhibition of stomach cancer cells; format: cell-based; details: Homo sapiens, MKN-28
Description: as §1, §8

[26] = tested on: MKN1; assay: Proliferation inhibition of stomach cancer cells; format: cell-based; details: Homo sapiens, MKN-1
Description: as §1, §8

[27] = tested on: MKN45; assay: Proliferation inhibition of stomach cancer cells; format: cell-based; details: Homo sapiens, MKN-45
Description: as §1, §8

[28] = target: α-chymotrypsin (Bos taurus, UniProt P00766); assay: α-Chymotrypsin-like activity inhibition test; format: biochemical
Description: α-Chymotrypsin-Like Activity Inhibition Test
as §4
2) To the above test system, fluorescence labeled α-chymotrypsin including a 20S proteasome segmenting sequence was added, and reacted for 1 hr at 30° C.
as §5, §6, §7
6) As a positive control of the enzyme activity, the well-known proteasome inhibitor Clasto-Lactacystin β-Lactone (Lactacystin activator) and MGI32 were evaluated with the steps (1) to (5).

In the case of c1ccc(C2=C(c3ccc(OCCN4CCCC4)cc3)c3ccc(OCCN4CCCC4)cc3CC2)cc1 [Naforidaifen B, 4-[4-(2-pyrrolidine-1-yl-ethoxy)phenyl]-7-(2-pyrrolidine-1-yl-ethoxy)-3-phenyl-1,2-dihydronaphthalene], the GI50 [1] is reported as 1.95 µM, the GI50 [2] is reported as 1.26 µM and the GI50 [3] is reported as 1.58 µM. The GI50 [4] was 1.45 µM, the GI50 [5] was 2.34 µM and the Proteasome selectivity [6] was “present”. For the same compound, the “The evaluations (proteasome inhibition activity)” value [6] was “positive”, the IC50 [7] was 2.5 µM and the remaining activity at 10 µM [7] was 16.5%. The GI50 [8] was 1.62 µM, the GI50 [9] was 1.58 µM and the GI50 [10] was 3.09 µM. The GI50 [11] was 3.8 µM, the GI50 [12] was 1.32 µM and the IC50 [13] was 4.6 µM. It also gave a remaining activity at 10 µM [13] of 27.1%, a GI50 [14] of 1.91 µM and a GI50 [15] of 2.09 µM. It also gave a GI50 [16] of 1.58 µM, a GI50 [17] of 2 µM and a GI50 [18] of 1.86 µM. The GI50 [19] was 1.91 µM, the “Cathepsin B inhibition” value [20] was “none” and the IC50 [21] was 8.6 µM. The remaining activity at 10 µM [21] was 35.3%, the GI50 [22] was 1.58 µM and the GI50 [23] was 1.86 µM. For the same compound, the GI50 [24] was 1.66 µM, the GI50 [25] was 2.19 µM and the GI50 [26] was 1.48 µM. For the same compound, the GI50 [27] was 1.66 µM and the α-chymotrypsin inhibition [28] was “none”.
In the case of c1ccc(C2=C(c3ccc(OCCN4CCOCC4)cc3)c3ccc(OCCN4CCOCC4)cc3CC2)cc1 [Naforidaifen D, 4-[4-(2-morpholine-1-yl-ethoxy)phenyl]-7-(2-morpholine-1-yl-ethoxy)-3-phenyl-1,2-dihydronaphthalene], the GI50 [1] is reported as 20 µM, the GI50 [2] is reported as 14.8 µM and the GI50 [3] is reported as 17.8 µM. For the same compound, the GI50 [4] was 12.6 µM, the GI50 [5] was 19.1 µM and the Proteasome selectivity [6] was “present”. For the same compound, the “The evaluations (proteasome inhibition activity)” value [6] was “positive”, the IC50 [7] was 4.6 µM and the remaining activity at 10 µM [7] was 21.9%. For the same compound, the GI50 [8] was 6.92 µM, the GI50 [9] was 17.4 µM and the GI50 [10] was 15.5 µM. It also gave a GI50 [11] of 25.7 µM, a GI50 [12] of 18.6 µM and an IC50 [13] of 6.8 µM. It also gave a remaining activity at 10 µM [13] of 22.1%, a GI50 [14] of 28.8 µM and a GI50 [15] of 38.9 µM. The GI50 [16] was 15.5 µM, the GI50 [17] was 20.4 µM and the GI50 [18] was 15.8 µM. For the same compound, the GI50 [19] was 14.5 µM, the “Cathepsin B inhibition” value [20] was “none” and the IC50 [21] was 4.1 µM. It also gave a remaining activity at 10 µM [21] of 21.6%, a GI50 [22] of 19.5 µM and a GI50 [23] of 15.5 µM. It also gave a GI50 [24] of 19.5 µM, a GI50 [25] of 45.7 µM and a GI50 [26] of 18.6 µM. The GI50 [27] was 16.6 µM and the α-chymotrypsin inhibition [28] was “none”.
With CCN(CC)CCOc1ccc(C2=C(c3ccccc3)CCc3cc(OCCN(CC)CC)ccc32)cc1 [Naforidaifen E, 4-[4-(2-diethylamino-1-yl-ethoxy)phenyl]-7-(2-diethylamino-1-yl-ethoxy)-3-phenyl-1,2-dihydronaphthalene] the GI50 [1] was 1.95 µM, the GI50 [2] was 1.2 µM and the GI50 [3] was 1.58 µM. For the same compound, the GI50 [4] was 0.813 µM, the GI50 [5] was 1.58 µM and the Proteasome selectivity [6] was “present”. For the same compound, the “The evaluations (proteasome inhibition activity)” value [6] was “positive”, the IC50 [7] was greater than 10 µM and the remaining activity at 10 µM [7] was 54.6%. For the same compound, the GI50 [8] was 1.58 µM, the GI50 [9] was 1.86 µM and the GI50 [10] was 1.91 µM. The GI50 [11] was 2.45 µM, the GI50 [12] was 2.19 µM and the IC50 [13] was 9.9 µM. It also gave a remaining activity at 10 µM [13] of 49.6%, a GI50 [14] of 1.62 µM and a GI50 [15] of 1.82 µM. It also gave a GI50 [16] of 1.51 µM, a GI50 [17] of 1.51 µM and a GI50 [18] of 1.86 µM. For the same compound, the GI50 [19] was 1.82 µM, the “Cathepsin B inhibition” value [20] was “none” and the IC50 [21] was greater than 10 µM. It also gave a remaining activity at 10 µM [21] of 162%, a GI50 [22] of 1.41 µM and a GI50 [23] of 1.55 µM. For the same compound, the GI50 [24] was 1.23 µM, the GI50 [25] was 1.82 µM and the GI50 [26] was 1.41 µM. For the same compound, the GI50 [27] was 1.66 µM and the α-chymotrypsin inhibition [28] was “none”.
CC/C(=C(\c1ccccc1)c1ccc(OCCN(C)C)cc1)c1ccccc1 [TAM, tamoxifen citrate, reference compound] was tested, and the GI50 [1] was 3.55 µM, the GI50 [2] was 7.24 µM and the GI50 [3] was 2.95 µM. The GI50 [4] was 2.34 µM, the GI50 [5] was 5.89 µM and the GI50 [8] was 4.37 µM. For the same compound, the GI50 [9] was 4.68 µM, the GI50 [10] was 20 µM and the GI50 [11] was 11.2 µM. It also gave a GI50 [12] of 6.03 µM, a GI50 [14] of 13.5 µM and a GI50 [15] of 12 µM. It also gave a GI50 [16] of 7.76 µM, a GI50 [17] of 5.01 µM and a GI50 [18] of 3.72 µM. The GI50 [19] was 4.17 µM, the GI50 [22] was 5.25 µM and the GI50 [23] was 6.31 µM. For the same compound, the GI50 [24] was 3.24 µM, the GI50 [25] was 6.31 µM and the GI50 [26] was 10.2 µM. It also gave a GI50 [27] of 8.32 µM.
